Series [1] deals with C2C12 skeletal muscle cells. Description: Reactive species scavenging ability (DCFDA fluorescence). The format is cell-based. Particulars: 100 μM ester for 1 h after 5 days culture in GLT RPMI-1640 media. The procedure: C2C12 muscle cell myotubes were cultured for 5 days in standard RPMI-1640 tissue culture media or GLT RPMI-1640 media. Corresponding media were then replaced and supplemented independently with 100 μM of a carnosine ester (L-carnosine methyl ester, L-carnosine ethyl ester, and L-carnosine iso-propyl ester investigated) for 1 h. Non-supplemented standard and GLT RPMI-1640 media were also retained as controls. Cells were thereafter washed 3 times in KRB and 20 μM 2′,7′-dichlorofluorescein diacetate (DCFDA), a cell permeant fluorogenic dye that measures hydroxyl, peroxyl and other ROS, was loaded for 1 h. Reactive species detection was measured via fluorescence, with excitation at 495 nm and emission at 530 nm.

The next series relates to INS-1 pancreatic β-cells. Description: Insulin secretion from INS-1 pancreatic β-cells (ELISA, normalised to cellular protein). Particulars: 100 μM ester in GLT RPMI-1640 medium for 5 days; 2 h secretagogue cocktail stimulation. The class given is cell-based. The procedure: INS-1 pancreatic B-cells were cultured for 5 days in standard RPMI-1640 tissue culture media or GLT RPMI-1640 media. The media were either used without further supplementation (used as controls) or were independently supplemented with either 10 mM of L-carnosine or with 100 μM of a carnosine ester (L-carnosine methyl ester, L-carnosine ethyl ester, and L-carnosine iso-propyl ester investigated). INS-1 cells were then treated with KRB or KRB supplemented with secretagogue cocktail (13.5 mM glucose, 1 μM phorbol 12-myristate 13-acetate, 1 mM isobutyl-methylxanthine, 1 mM tolbutamide, 10 mM leucine, 10 mM glutamine) as a stimulant of insulin secretion for 2 h. Insulin secretion was determined by ELISA assay, with data normalised to cellular protein content.
A general note: ELISA stands for enzyme-linked immunosorbent assay.

In series [2] the test system is C2C12 skeletal muscle cells. Description: Toxicity testing of carnosine esters (Calcein AM cell viability). The class given is cell-based. Particulars: 100 μM ester in GLT RPMI-1640 medium, 5 days culture, versus control medium. As for the experimental part:
C2C12 muscle cell myotubes were cultured for 5 days in the following four culture media: a control RPMI-1640 medium; glucolipotoxic (GLT) RPMI-1640 medium (28 mM glucose, 200 μM palmitic acid and 200 μM oleic acid) supplemented with 100 μM of L-carnosine methyl ester; GLT RPMI-1640 medium supplemented with 100 μM of L-carnosine ethyl ester; and GLT RPMI-1640 medium supplemented with 100 μM of L-carnosine iso-propyl ester. Following culture, media were aspirated and cells washed 3 times in Krebs-Ringer buffer (KRB). A final concentration of 5 μM Calcein AM Cell Viability Dye (ThermoFischer) in KRB was loaded for 1 h before washing again with KRB. Cell viability was measured via fluorescence, with excitation and emission at 490 nm and 520 nm, respectively.

In series [3] the test system is High fat-fed spontaneously diabetic mice. Description: Glucose tolerance test in an in vivo model of type-2 diabetes. Particulars: 45 mg/kg body weight/day in diet. The procedure: High fat-fed spontaneously diabetic mice were used as an animal model of type-2 diabetes. A glucose tolerance test was performed on three sets of mice, wherein the mice were initially fasted for 6 h. A […] glucose solution was then administered to the three sets of mice in their drinking water and their blood glucose concentrations (mmol/L) monitored over a period of 2 h. The following three sets of mice were used in the study: • Non-diabetic, non-high fat-fed mice. • Spontaneously diabetic high fat-fed mice. • Spontaneously diabetic high fat-fed mice whose diet also included 45 mg/kg body weight/day of L-carnosine iso-propyl ester.
Spontaneously diabetic high fat-fed mice were defined as mice which had been fed the following high fat diet from Research Diets: (60% fat; D12492). Non-diabetic, non-high fat-fed mice were used as a control and were fed the following low fat diet from Research Diets: (10% fat, D12450B). The body weights of the mice on the two different diets were measured throughout.

In the case of `CCOC(=O)[C@H](Cc1cnc[nH]1)NC(=O)CCN` [L-carnosine ethyl ester], in series [1], the “intracellular reactive species (GLT-associated reactive species levels)” value (“intracellular reactive species” for short) is “return to control values”. In addition, the “insulin secretion in cells exposed to glucolipotoxicity (GLT)” value (“insulin secretion in cells exposed” for short) with INS-1 pancreatic β-cells is reported as “reverse glucolipotoxic inhibition of insulin secretion”. Further, the cell viability result in series [2] is on record as “non-toxic”.
Regarding `CC(C)OC(=O)[C@H](Cc1cnc[nH]1)NC(=O)CCN` [L-carnosine iso-propyl ester], in series [3] (high fat-fed mice), the “toxic effects on the animals” value is on record as “no toxic effects”. Moreover, the glucose tolerance result in series [3] (spontaneously diabetic high fat-fed mice, 6 h fast) is on record as “significantly improved glucose tolerance”. Besides, the “blood glucose concentrations at the end of the study (2 h)” value in series [3] (versus high fat-fed mice only administered the high fat diet) is “significantly lower”. Moreover, the “intracellular reactive species” value in series [1] is “return to control values”. Besides, the “insulin secretion in cells exposed” value in the series with INS-1 pancreatic β-cells is given as “reverse glucolipotoxic inhibition of insulin secretion”. Moreover, the cell viability entry in series [2] is “non-toxic”.
Take `COC(=O)[C@H](Cc1cnc[nH]1)NC(=O)CCN` [L-carnosine methyl ester]: the “intracellular reactive species” value in series [1] is “return to control values”. Further, in the series on INS-1 pancreatic β-cells, the “insulin secretion in cells exposed” value is “reverse glucolipotoxic inhibition of insulin secretion”. The cell viability entry in series [2] is “non-toxic”.
